Assay results: patent US9073880B2, “2-(2-phenylethenyl) 1,3-benzodiazepine derivatives useful for the treatment of cancer” (Yissum Research Development Company of the Hebrew …, priority 2010, dated 2015)

Legend:
[1] = test system: Human ovary cancer A2780 cells; assay: Cell proliferation, A2780 (Example 2); assay type: cell-based; conditions: 72 hours, 0.1% DMSO, methylene blue
Procedure: Human ovary cancer A2780 cells lines were seeded at a density of 5000 cells/well, human melanoma A375 cells were plated at a density of 2,500 cells/well, human colon carcinoma HCT15 cells were plated at a density of 3,000 cells/well, human prostate carcinoma PC3 cells were plated at a density of 1,500 cells/well, human breast carcinoma MCF7 cells were plated at a density of 5,000 cells/well, human breast carcinoma MDA MB 468 cells were plated at a density of 6,000 cells/well, human myeloma U266, RPMI8226 and CAG cells were plated at a density of 10,000 cells/well. All cells were plated in 96-well plates in 90 μl growth medium containing 10% FCS, 100 units/ml penicillin and 100 μg/ml streptomycin. Compound 3 was added a day later in […] of 1% DMSO in DDW to obtain final concentrations of 0, 0.1, 0.3, 1, 3, and 10 μM. The final concentration of DMSO (0.1% DMSO) was kept constant in all samples. […] The optical density values were read at 630 nm in ELISA plate reader. Non-adhered cells were exposed to WST-1 reagent for 5 hours following 72 hours treatment with the inhibitors, and optical density values were read at 630 nm in ELISA plate reader. The data was analyzed in Microsoft Excel, using the vehicle control as 100% proliferation. […]

IGF-1R = target: T1, IGF-1R (Homo sapiens, UniProt P08069); assay: IGF1-induced IGF-1R auto-phosphorylation in MCF7 cells (western blot); assay type: cell-based; conditions: 10 μM, FIG. 3
T1 construct: endogenous in cells; host or cells: MCF7 human breast cancer cells
Procedure: (§1) Tyrosine autophosphorylation of the β-subunit of IGF-1R as well as downstream signaling induced by IGF-1R were assayed in human breast cancer MCF7 cells and in melanoma A375 cells. Cells were seeded in 6-well plates (250,000 A375 cells/well and 300,000 MCF7 cells/well) and 24 hours later medium was replaced by serum-free medium (RPMI supplemented with 100 units/ml penicillin and 100 μg/ml streptomycin). MCF7 cells were exposed for 48 hr to compound 3 at 10 μM concentration, and then stimulated for 5 minutes with 50 ng/ml IGF-1, washed twice with PBS and lysed by boiling sample buffer (10% glycerol, 50 mM Tris-HCl, pH 6.8, 3% SDS, and 5% (3-mercaptoethanol). Equal amounts of protein per lane were separated by 8% SDS-PAGE and transferred to a nitrocellulose membrane (Sartorius AG). Phosphorylated proteins were immunoblotted with anti-phosphoIGF-1R (pIGF-1R), anti-phosphotyrosine-IRS1 (pY-IRS I) and anti-phospho(T308)Akt (pPKB) antibodies. Detection was performed with horseradish peroxidase-conjugated secondary antibody using the ECL system. Blots were then stripped of antibodies, blocked with TBST with 5% low fat milk and re-probed with antibodies detecting both the phosphorylated and the non-phosphorylated corresponding proteins e.g. IGF-1Rβ, IRS1 and PKB.

IRS1 = IRS1 levels and serine phosphorylation in MCF7 cells (western blot, time course); assay type: cell-based, human; conditions: 10 μM
Procedure: as §1, with “PKB. […]” for “PKB.”

[2] = test system: human ovary A2780 tumor cells; assay: Survival of nude mice bearing intraperitoneal human ovarian A2780 tumors; assay type: in vivo; conditions: for median survival time: IV, control 28 days
Procedure: In order to determine the effect of the compounds of the present invention on the growth and spread of tumors in-vivo, the compounds were administered to nude mice bearing human ovarian cancer. […] A model of peritoneal carcinomatosis formation, involving intraperitoneal administration of human ovary A2780 tumor cells, was used.
Two million human ovarian A2780 cells were injected to the peritoneum of 4-5 weeks old female nude mice. A week later, treatments with compound 3 or vehicle were initiated. Compound 3 was administered IV, daily at a dose of 3 mg/kg or weekly at a dose of 12 mg/kg for the time periods indicated in FIG. 7. The control group was weekly administered (IV) with the vehicle (20% 2-hydroxypropyl-b-cyclodextrin). Each group included 10 mice.

IRS1 & IRS2 = assay: IRS1 and IRS2 levels in A375 cells (Example 5); assay type: cell-based, human
Procedure: The effect of compound 5 on IRS1 & IRS2 levels and its effect on IGF1-induced Akt/PKB activation and apoptosis in melanoma A375 cells were tested. Cells were seeded in 6-well plates (150,000 A375 cells/well) and 24 hours later medium was replaced by serum-free medium (RPMI supplemented with 100 units/ml penicillin and 100 μg/ml streptomycin), […], and then stimulated for 5 minutes with 50 ng/ml IGF-1, washed twice with PBS and lysed by boiling sample buffer (10% glycerol, 50 mM Tris-HCl, pH 6.8, 3% SDS, and 5% β-mercaptoethanol). Equal amounts of protein per lane were separated by 8% SDS-PAGE and transferred to a nitrocellulose membrane (Sartorius AG). To detect the inhibition of the Akt/PKB activation, phosphorylated proteins were immunoblotted with anti-phospho(T308)Akt (pT308-PKB) and anti-phospho-Tuberin/TSC2 (pTuberin) antibodies. To visualize cell death induced by compound 5, the intact and the cleaved PARP were immunoblotted with anti-PARP antibody. The changes in the levels of IRS1 and IRS2 were detected with specific antibodies. Detection was performed with horseradish peroxidase-conjugated secondary antibody using the ECL system. Blots were then stripped of antibodies, blocked with TBST with 5% low fat milk and re-probed with antibodies detecting both the phosphorylated and the non-phosphorylated Akt/PKB. […]

T1 sequence (P08069 31-1367): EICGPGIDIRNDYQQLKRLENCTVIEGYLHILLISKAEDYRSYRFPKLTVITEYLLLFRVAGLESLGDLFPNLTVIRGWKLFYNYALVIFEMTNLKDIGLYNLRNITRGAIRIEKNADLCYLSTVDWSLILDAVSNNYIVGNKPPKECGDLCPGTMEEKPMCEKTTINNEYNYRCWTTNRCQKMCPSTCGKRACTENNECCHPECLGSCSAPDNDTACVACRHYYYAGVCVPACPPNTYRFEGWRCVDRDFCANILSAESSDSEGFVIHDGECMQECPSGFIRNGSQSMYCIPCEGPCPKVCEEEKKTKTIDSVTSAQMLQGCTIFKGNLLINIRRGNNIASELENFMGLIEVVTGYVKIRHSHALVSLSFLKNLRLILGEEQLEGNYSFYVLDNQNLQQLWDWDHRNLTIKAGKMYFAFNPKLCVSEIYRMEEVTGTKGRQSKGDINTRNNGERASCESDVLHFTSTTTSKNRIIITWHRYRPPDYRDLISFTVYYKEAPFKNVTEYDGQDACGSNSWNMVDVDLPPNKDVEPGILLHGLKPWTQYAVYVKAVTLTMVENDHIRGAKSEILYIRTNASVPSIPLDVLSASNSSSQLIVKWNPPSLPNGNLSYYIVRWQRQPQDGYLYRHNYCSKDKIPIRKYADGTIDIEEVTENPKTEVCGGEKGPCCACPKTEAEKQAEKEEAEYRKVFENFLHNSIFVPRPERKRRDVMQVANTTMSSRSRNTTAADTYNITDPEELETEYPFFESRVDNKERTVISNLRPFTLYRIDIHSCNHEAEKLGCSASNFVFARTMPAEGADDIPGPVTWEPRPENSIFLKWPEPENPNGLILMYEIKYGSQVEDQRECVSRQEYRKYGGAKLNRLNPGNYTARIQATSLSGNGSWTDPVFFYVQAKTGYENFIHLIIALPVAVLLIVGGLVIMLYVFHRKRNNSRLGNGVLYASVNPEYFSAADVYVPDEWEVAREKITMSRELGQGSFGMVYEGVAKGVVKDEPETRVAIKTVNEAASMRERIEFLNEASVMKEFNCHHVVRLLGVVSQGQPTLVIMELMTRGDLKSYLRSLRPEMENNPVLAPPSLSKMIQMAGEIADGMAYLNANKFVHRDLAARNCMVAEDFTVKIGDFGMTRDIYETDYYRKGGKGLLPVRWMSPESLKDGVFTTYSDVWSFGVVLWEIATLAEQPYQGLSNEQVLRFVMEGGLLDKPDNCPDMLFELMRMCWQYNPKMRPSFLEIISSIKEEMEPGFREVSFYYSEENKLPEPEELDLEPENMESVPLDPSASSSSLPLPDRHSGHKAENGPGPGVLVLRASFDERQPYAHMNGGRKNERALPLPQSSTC

| SMILES | IC50 [1] [nM] | IGF1-induced auto-phosphorylation of IGF-1R (IGF-1R; 48 hr, 50 ng/ml IGF-1 5 minutes) | duration of the inhibitory effect (IGF-1R) | levels of IRS1 (IRS1; 48 hr, FIG. 3) | time course of effect on IRS1 phosphorylation and levels (IRS1; various time periods, FIG. 5) | median survival time compared to Cisplatin and Sunitinib ([2]; 50 mg/kg daily IV vs Cisplatin 3 mg/kg ip 3 times a week for two weeks and Sunitinib 40 mg/kg daily PO, data not shown) | median survival time ([2]; daily, 3 mg/kg, FIG. 7) | median survival time ([2]; weekly, 12 mg/kg, FIG. 7) | survival compared to control mice ([2]; intravenous treatment, 3 mg/kg daily or 12 mg/kg weekly, FIG. 7) | IRS1 and IRS2 levels (IRS1 & IRS2; 3 μM, 48 hr, FIG. 6B) | levels of IRS1 & IRS2 after washout (IRS1 & IRS2; 5 μM for 4 hr, washed, 24 hr after washout, FIG. 6C) |
| --- | --- | --- | --- | --- | --- | --- | --- | --- | --- | --- | --- |
| O=c1c(O)cc2cnc(/C=C/c3cc(O)c(O)c(Br)c3)sc-2c1O [Compound 3] | 300 | significantly inhibited | more than 48 hr | significant decrease | elimination of IRS1 induced by compound 3 is subsequent to IRS1 serine phosphorylation | preferable median survival time | over 81 days | over 81 days | dramatically increased survival |  |  |
| O=c1c(O)cc2cnc(/C=C/c3ccc(O)c(O)c3Br)sc-2c1O [Compound 5] |  |  |  |  |  |  |  |  |  | induced a decrease in IRS1 and IRS2 levels | remained low |
